We go through four compounds from patent US20080045500A1, “Nerve Regeneration Stimulator” (priority 2004, published 2008).

Entries after “also recorded” stand apart in the source; their conditions may differ.

Assay [1] concerns neural stem cells (BrdU positive cells) in hippocampal dentate gyrus. Briefly: Nerve regeneration in mouse hippocampal dentate gyrus: BrdU labelling, immunohistochemical count and GCL volume. Format: in vivo. (In general: Uptake of a labelled nucleoside into DNA is a usual measure of proliferation.)
Procedure: C57BL/6 male SPF mice (8-week-old at the beginning of the experiments) purchased from Japan SLC, Inc. were used. Animals were subjected to experiments after acclimating in a breeding room under control at a temperature of 23±1° C. and illumination of 12 hours (7:00 to 19:00) for 5 days or longer. During breeding, animals had free access to solid food MF (Oriental Yeast Co., Ltd.) and water (tap water).
BrdU (Sigma) for labeling neural stem cells was used by dissolving in a phosphate buffer solution (PBS: Sigma) containing 0.007N HCl at a concentration of 5 mg/mL (Yoshimura et al., PNAS, 98, 5874-5879, 2001, Yoshimura et al., J. Clin. Invest., 112, 1202-1210, 2003). BrdU was intraperitoneally administered at a dose of 50 mg/kg (0.1 ml BrdU solution/10 g weight) for three times (every 4 hours).
Injectable distilled water was orally administered to animals of the vehicle control group.
The removed brain was sliced into coronal sections in a frozen state with a thickness of 40 μm using a sliding microtome (Leica, Model SM2000R, Nussloch). The sliced brain tissues were successively placed in 10 wells of a culture plate with a PBS solution containing sodium azide such that 10 sections were placed per well.
Immunostaining of the brain tissues were carried out by flotation (Yoshimura et al., PNAS, 98, 5874-5879, 2001, Yoshimura et al., J. Clin. Invest., 112, 1202-1210, 2003). Peroxidase method (ABC system, Vector Laboratories Inc.) was used for immunohistochemical detection of BrdU (Yoshimura et al., PNAS, 98, 5874-5879, 2001, Yoshimura et al., J. Clin. Invest., 112, 1202-1210, 2003). As a primary antibody to BrdU, rat anti-BrdU antibody (400-fold-diluted, Accurate Chemical & Scientific Corporation) was used. As a secondary antibody, rabbit IgG biotinylated antibody (200-fold-diluted, Vector Laboratories Inc.) was used
For quantitation, four hippocampal sections (intervals of sections being 400 μm, four sections between −1.4 mm to −2.6 mm from bregma) were used for each individual. All of the BrdU positive cells present in a subgranular zone (SGZ) and a granule cell layer (GCL) of the hippocampal dentate gyrus were determined. SGZ was defined as an area with a depth of 20 μm (a size corresponding to two cells) just below the GCL (on the side of hylus). […] The GCL area in each hippocampal section was determined as a cresyl violet positive GCL area using an image analyzing software (NIH, image ver. 1.60).
A volume of GCL (GCLV) was determined as a GCL volume in left hemisphere between −1.4 mm to −2.6 mm from bregma (Cavalieri technique). The number of BrdU positive cells in GCLV was calculated by multiplying the number of BrdU positive cells in the four hippocampal sections by 10. […]
All of the quantitative values are indicated in mean ±standard error (n=8 for each group).
Assay [2] shares this test system. Briefly: Nerve regeneration in rat hippocampal dentate gyrus: BrdU labelling, immunohistochemical count and GCL volume. It counts as in vivo. The following applies: for GCL volume / Number of BrdU positive cells per hippocampus: SD rats, mean ± standard error, n=11; for Number of BrdU positive cells per hippocampus: vehicle 5490 ± 179, * p<0.05. The procedure: SD male SPF rats (6-week-old at the beginning of the experiments) purchased from Japan SLC, Inc. were bred under the same conditions as the mice in Example 2. Animals were subjected to experiments after acclimating for 5 days or longer following purchase.
BrdU (Sigma) for labeling neural stem cells was dissolved in PBS containing 0.014N HCl at a concentration of 10 mg/mL. BrdU was intraperitoneally administered at a dose of 50 mg/kg for three times (every 4 hours).
Injectable distilled water was orally administered at the same volume to animals in the vehicle control group.
The removed brain was sliced into sections as described in Example 2 for use in immunohistochemical studies.
Immunostaining of the brain tissues were carried out as described in Example 2.
For quantitation, four hippocampal sections (thickness of 40 μm, intervals of sections being 400 μm, four sections between −3.6 mm to −4.8 mm from bregma) were used for each individual. BrdU positive cells were counted in the same manner as Example 2. The GCL volume in each hippocampal section and the total number of BrdU positive cells in each hippocampal dentate gyrus were also determined as described in Example 2.
In Table 2, “*” indicates p<0.05, in comparison to the vehicle control group.

Assay [3] relates to rat neural progenitor cells. Briefly: Intracellular calcium concentration of fetal rat neural progenitor cells (Fluo-3). It counts as cell-based. As for the experimental part: Cerebrums were isolated from fetuses obtained from 14.5 days pregnant SD female rats (Japan SLC, Inc.). Cells were dispersed by pipetting the tissue in cold L-15 medium. These cells were cultured in a suspension containing 20 ng/ml human basic fibroblast growth factor (bFGF) in serum-free D-MEM/F-12 medium (supplemented with B-27, N2 (both from Invitrogen) and gentamicin beforehand). The rat neural progenitor cells are known to form a neurosphere in this medium. After 5 to 7 days, the neurosphere was collected and pipetted to isolate the rat neural progenitor cells, followed by passage culture using the medium described above.
The neural progenitor cells were isolated from the neurosphere that was collected a day before the experiment and suspended in the bFGF-free medium otherwise same as described above. After the number of cells was counted, 50,000 cells each were suspended in 100 μL of the medium described above and dispensed into a 96-flat bottom culture plate. Intracellular Ca^++ concentration was determined using a commercially available kit (Calcium Kit-Fluo-3, Dojindo laboratories) according to the attached instruction. To some of the wells, atropine (muscarine receptor antagonist) was added to 25 μmol/L and cultured at 37° C. for 30 minutes beforehand. […]
In general terms: Calcium assays in cells follow changes in intracellular calcium, usually with a dye or a luminescent sensor.

The test system of assay [4] is hippocampus of PTSD patients. The following applies: administration to PTSD patients, reported by Bremner 2002; cited from earlier work.
Where [5] appears, read: 0.5 mg/kg orally once a day for 28 days.
The mark [6] stands for this setting: 2 mg/kg orally once a day for 28 days.

Take `COc1cc2c(cc1OC)C(=O)C(CC1CCN(Cc3ccccc3)CC1)C2.Cl` (stereo not drawn) [Donepezil, 1-benzyl-4-[(5,6-dimethoxy-1-indanone)-2-yl]methylpiperidine hydrochloride]: the “Number of BrdU positive cells per hippocampus” value in assay [1] (C57BL/6 mice, 1 mg/kg orally once a day for 14 days, mean ± standard error, n=8, vehicle 1091 ± 56, * p<0.05) is on record as 1528 ± 137*; in assay [2] (setting [5]), 6880 ± 436*; in assay [2] (setting [6]), 6694 ± 357*. In assay [1] (mice, 1 mg/kg orally, 14 days), the “Effect on the volume of hippocampal nerve cell layer (GCL), in words” value was “no effect”. Also, in assay [1] (mice, 1 mg/kg orally, 14 days, statistically significant, hydrochloride, 1 mg/kg), the “Number of BrdU positive cells compared to vehicle group (in words)” value was “higher; also recorded: increased”. Moreover, the GCL volume in assay [2] (setting [5]) is 1.27 ± 0.04 mm^3; in assay [2] (setting [6]), 1.35 ± 0.04 mm^3. Besides, the “Influence on the volume of rat hippocampal nerve cell layer (GCL), in words” value in assay [2] (rats, 0.5 and 2 mg/kg orally, 28 days) is listed as “no influence”. Also, the “Number of BrdU positive cells per hippocampus compared to vehicle group (in words)” value in assay [2] (rats, each donepezil group (0.5 and 2 mg/kg orally, 28 days), statistically significant) is “higher”.

Consider `CN1[C@@H]2CC[C@H]1C[C@@H](OC(=O)C(CO)c1ccccc1)C2` (stereo partly drawn) [atropine], for which, in assay [3] (25 μmol/L pretreatment for 30 minutes), the “Antagonism of the acetylcholine/carbachol induced intracellular Ca++ increase” value is “completely antagonized; also recorded: completely inhibited”.

Regarding `C[N+](C)(C)CCOC(N)=O` [carbachol], the “Change of intracellular Ca++ concentration on stimulation” value in assay [3] (25 μmol/L agonist, Fluo-3 fluorescence) is given as “increases”.

Turning to `Fc1ccc([C@@H]2CCNC[C@H]2COc2ccc3c(c2)OCO3)cc1` [paroxetine], the “Volume of hippocampus of PTSD patients” value in assay [4] is on record as “increase”.
